Measured values reported in US9493419B2, “Quinoline derivatives as anti-cancer agents” (The Hong Kong Polytechnic University, priority 2007, dated 2016).
In brackets after ≈: the same amount, converted by molar mass.

Columns and labels:
[1] = test system: Hep3B; experiment: MTS activity assay, Hep3B; assay type: cell-based, human; details: for viability at 50 µg/mL: Homo sapiens, Hep3B, read-out: Relative MTS Activity at 50 μg/mL Concentration, Hep3B
From the text: (§1) All the assays were done in triplicates.

[2] = test system: Esophageal squamous cell carcinoma cell line HKESC-1; experiment: MTS activity assay, HKESC-1; assay type: cell-based; details: for Relative MTS Activity at 50 μg/mL Concentration, HKESC-1: 48 hours, relative to control
From the text: as §1

[3] = test system: ESCC cell line HKESC-4; experiment: MTS activity assay, HKESC-4; assay type: cell-based; details: for Relative MTS Activity at 50 μg/mL Concentration, HKESC-4: 48 hours, relative to control
From the text: as §1

[4] = test system: Esophageal squamous cell carcinoma cell line KYSE150; experiment: MTS activity assay, KYSE150; assay type: cell-based, human; details: for Relative MTS Activity at 50 μg/mL Concentration, KYSE150: 48 hours, relative to control
From the text: as §1

[5] = test system: five carcinoma cell lines (Hep3B, A549, HKESC-1, HKESC-4 and KYSE150); details: against the cancer cell lines, FIG. 1
From the text: (§3) Lung carcinoma cell line (A549) and hepatocellular carcinoma (HCC) cell line (Hep3B) were obtained from American Type of Culture Collection (ATCC). Esophageal squamous cell carcinoma cell line KYSE150 was purchased from DSMZ (Braunschweig, Germany) [13]. […] Hep3B HCC and A549 lung carcinoma cell lines were maintained in DMEM and F12-K medium respectively with 10% of heat inactivated fetal bovine serum (Hyclone) together with antibiotics involving penicillin and streptomycin. All the ESCC cell lines (KYSE150, HKESC-1 and HKESC-4) were maintained in MEM supplemented with 10% of heat inactivated fetal bovine serum together with antibiotics involving penicillin and streptomycin. Cells were allowed to grow in a humidified cell culture incubator keeping at 5% carbon dioxide.
(§4) Briefly, 1×10^4 carcinoma cells were seeded at day 0. After 24 hours, medium was changed and various compounds were added at different concentrations. Cisplatin (CDDP), a commonly used anti-cancer agent, was also used as the positive control. After 48 hours of incubation, the medium was removed and MTS/PMS solution was added and they were incubated further for exactly 30 minutes. Afterwards, optical absorbance was determined at 490 nm according to the user manual (Promega). All the assays were done in triplicates.

[6] = test system: five carcinoma cell lines (Hep3B, A549, HKESC-1, HKESC-4 and KYSE150); experiment: cells; details: read-out: MTS50 (50% of MTS reduction ability by the chemical treated cell as compared with control), against the cancer cell lines, FIG. 1
From the text: as §3, §4

[7] = test system: KYSE150 xenograft tumors; experiment: Subcutaneous KYSE150 xenograft tumors in nude mice; assay type: in vivo; details: 10 mg/kg/day i.p. for 19 days, compared with negative control (6% PEG), FIG. 2
Experimental: Optically pure compound (−)-2b (ee up 99%) was tested for their anti-cancer effects against the subcutaneous xenograft tumors of human esophageal cancer derived from the cell line KYSE150, which was purchased from DSMZ (Braunschweig, Germany) and was cultured in a known way as previously described (for details see reference number 17).
(§2) Each group of three mice received intra-peritoneal (i.p.) injection daily with 10 mg/kg of optically pure isomers with 6% polyethylene glycol (PEG Mn 8000) for 19 days. The control group of two mice was injected daily with 6% PEG only. Tumor dimensions were measured regularly with calipers, and tumor volumes were estimated using two-dimensional measurements of length and width and calculated with the formula [l×(w)^2]×0.52 (l is length and w is width) as previously described.

[8] = Histological examination of organs of treated mice; assay type: in vivo; details: mice after sacrifice; 10 mg/kg i.p. daily for 19 days
Experimental: as §2

[9] = test system: Human liver cancer cell line Hep3B; experiment: Preliminary anti-cancer screening, One Step ATP lite assay; assay type: cell-based; set-up: key to Relative activity to untreated control: “+” (more cell death); “−” (no cytotoxicity); details: 48 hours; for Relative activity to untreated control: Hep3B, 50 ug/ml
Experimental: Human liver cancer cell line Hep3B was used for purpose of preliminary anti-cancer screening for the selected alkaloids. Cancer cells (1×10^4 per well) seeded in the 96 wells microtitre plates for 24 hours were prepared for the alkaloid screening. The selected compounds were prepared as a stock concentration of 50 mg/ml in dimethylsulfoxide (DMSO) and were added at a concentration of 50 μg/ml and incubated for a further of 48 hours. Untreated control received either total complete medium or 0.1% of DMSO. Cisplatin (CDDP, also at 50 μg/ml) was the positive reference which induced more than 95% in Hep3B. Afterwards, the evaluation of possible antiproliferative or cytotoxicity of those alkaloids was examined by the One Step ATP lite assay purchased from PerkinElmer according to the technical manual provided. […] The relative MTS activities were compared with the untreated control and illustrated using symbols “+” (more cell death) and “−” (no cytotoxicity).

[10] = test system: Lung carcinoma cell line (A549); experiment: MTS activity assay, A549; assay type: cell-based; details: 48 hours, relative to control; for viability at 50 µg/mL: Homo sapiens, A549, 50 μg/mL, read-out: Relative MTS Activity at 50 μg/mL Concentration, A549
From the text: as §1

[11] = 50 μg/mL, 48 hours, relative to control

Compound	Relative MTS Activity at 50 μg/mL Concentration, HKESC-1 [2]	Relative MTS Activity at 50 μg/mL Concentration, HKESC-4 [3]	Relative MTS Activity at 50 μg/mL Concentration, KYSE150 [4]	viability at 50 µg/mL [1, 11] [%]	viability at 50 µg/mL [10] [%]	also measured
CC1CCc2c(Br)cc(Br)c(O)c2N1 (single isomer, unassigned; (+)) [(+)-2b, 5,7-Dibromo-1,2,3,4-tetrahydro-2-methylquinolin-8-ol]	–	–	–	–	–	cytotoxic activity relative to CDDP ([1]; cell line Hep3B, preliminary results): 1.5 fold; cytotoxic activity relative to CDDP ([2]; cell line HKESC-1, preliminary results): 1.5 fold; cytotoxic activity relative to CDDP ([3]; cell line HKESC-4, preliminary results): 1.5 fold; cytotoxic activity relative to CDDP ([4]; cell line KYSE150, preliminary results): more than 2 fold; MTS50 (50% of MTS reduction ability by the chemical treated cell as compared with control) [5]: ~5 µg/mL; IC50 [6]: 4 to 10 µg/mL (≈ 12.5 to 31.2 µM)
CC1CCc2c(Br)cc(Br)c(O)c2N1 (single isomer, unassigned; (-)) [(−)-2b, 5,7-Dibromo-1,2,3,4-tetrahydro-2-methylquinolin-8-ol]	–	–	–	–	–	volume growth of the KYSE150 xenograft tumors [7]: effective in suppressing the volume growth; Histological examination of liver, heart, lung and kidney sections [8]: no observable damage; MTS50 (50% of MTS reduction ability by the chemical treated cell as compared with control) [5]: ~5 µg/mL
[NH2][Pt]([NH2])([Cl])[Cl] [CDDP, Cisplatin, reference compound]	0.135 ± 0.017	0.158 ± 0.081	0.205 ± 0.032	–	–	effect induced by positive reference in Hep3B ([9]; 50 μg/ml): more than 95%; Relative MTS Activity at 50 μg/mL Concentration, Hep3B [1, 11]: 0.116 ± 0.031; Relative MTS Activity at 50 μg/mL Concentration, A549 [10]: 0.216 ± 0.075
CC1CCc2cccc(OCCN3CCCCC3)c2N1 (stereo not drawn) [Compound 8b, 8-(2-(Piperidin-1-yl)ethoxy)-1,2,3,4-tetrahydro-2-methylquinoline]	–	–	–	–	–	Relative activity to untreated control [9]: +
CC1CCc2cccc(OCc3cccc([N+](=O)[O-])c3)c2N1 (stereo not drawn) [Compound 9b, 8-(3-Nitrobenzyloxy)-1,2,3,4-tetrahydro-2-methylquinoline]	0.453 ± 0.012	0.698 ± 0.096	0.619 ± 0.025	68.8 ± 2.7	70.6 ± 18.4	–
CC1CCc2cccc(OCc3ccc([N+](=O)[O-])cc3)c2N1 (stereo not drawn) [Compound 10b, 8-(4-Nitrobenzyloxy)-1,2,3,4-tetrahydro-2-methylquinoline]	1.337 ± 0.145	1.056 ± 0.050	1.097 ± 0.036	126 ± 3	166 ± 17.3	–
COc1ccc(COc2cccc3ccc(C)nc23)cc1 [Compound 11a, 8-(4-methoxybenzyloxy)-2-methylquinoline]	0.817 ± 0.076	0.488 ± 0.017	0.797 ± 0.083	32 ± 1.7	52.7 ± 1.8	–
COc1ccc(COc2cccc3c2NC(C)CC3)cc1 (stereo not drawn) [Compound 11b, 8-(4-Methoxybenzyloxy)-1,2,3,4-tetrahydro-2-methylquinoline]	0.917 ± 0.023	0.777 ± 0.019	0.764 ± 0.001	55.4 ± 11.4	75.9 ± 7.9	–
COc1cccc(COc2cccc3ccc(C)nc23)c1 [Compound 12a, 8-(3-methoxybenzyloxy)-2-methylquinoline]	0.535 ± 0.032	0.794 ± 0.005	0.648 ± 0.013	20.9 ± 3	–	–
COc1cccc(COc2cccc3c2NC(C)CC3)c1 (stereo not drawn) [Compound 12b, 8-(3-Methoxybenzyloxy)-1,2,3,4-tetrahydro-2-methylquinoline]	0.682 ± 0.001	0.716 ± 0.022	0.845 ± 0.010	72.6 ± 6.5	–	–
CC1CCc2cccc(OCc3ccc(C#N)cc3)c2N1 (stereo not drawn) [Compound 13b, 4-((1,2,3,4-Tetrahydro-2-methylquinolin-8-yloxy)methyl)benzonitrile]	0.754 ± 0.017	0.424 ± 0.062	0.470 ± 0.087	84.2 ± 2.4	–	–
Cc1ccc2cccc(OCc3cccc(-c4ccccc4)c3)c2n1 [Compound 14a, 8-(biphenyl-3-ylmethoxy)-2-methylquinoline]	–	–	–	37 ± 21.4	24.4 ± 0.3	–
CC1CCc2cccc(OCc3cccc(-c4ccccc4)c3)c2N1 (stereo not drawn) [Compound 14b, 8-(Biphenyl-3-ylmethoxy)-2-methyl-1,2,3,4-tetrahydroquinoline]	–	–	–	51 ± 6.8	124 ± 6.6	–
Cc1ccc2cccc(OCc3ccc(OC(F)(F)F)cc3)c2n1 [Compound 15a, 8-(4-(trifluoromethoxy)benzyloxy)-2-methylquinoline]	–	–	–	77.7 ± 13	62.9 ± 8.1	–
CC1CCc2cccc(OCc3ccc(OC(F)(F)F)cc3)c2N1 (stereo not drawn) [Compound 15b, 8-(4-(Trifluoromethoxy)benzyloxy)-1,2,3,4-tetrahydro-2-methylquinoline]	–	–	–	76 ± 9	84 ± 2.9	–
CC1CCc2cccc(OCc3ccc(F)cc3)c2N1 (stereo not drawn) [Compound 16b, 8-(4-Fluorobenzyloxy)-1,2,3,4-tetrahydro-2-methylquinoline]	–	–	–	41.2 ± 1.7	90.8 ± 6.3	–
Cc1ccc2cccc(OCc3ccc(C(F)(F)F)cc3)c2n1 [Compound 17a, 8-(4-(trifluoromethyl)benzyloxy)-2-methylquinoline]	–	–	–	87.8 ± 7.3	92 ± 4.2	–
CC1CCc2cccc(OCc3ccc(C(F)(F)F)cc3)c2N1 (stereo not drawn) [Compound 17b, 8-(4-(Trifluoromethyl)benzyloxy)-1,2,3,4-tetrahydro-2-methylquinoline]	–	–	–	73.4 ± 2.4	98.3 ± 0.1	–
CC1CCc2cccc(OCc3ccc(Cl)cc3)c2N1 (stereo not drawn) [Compound 18b, 8-(4-Chlorobenzyloxy)-1,2,3,4-tetrahydro-2-methylquinoline]	–	–	–	60.9 ± 4.2	109 ± 3.9	–
CC(=O)Oc1cccc2c1NC(C)CC2 (stereo not drawn) [Compound 25b, 2-Methyl-1,2,3,4-tetrahydroquinolin-8-yl acetate]	–	–	–	–	–	Relative activity to untreated control [9]: +
CC(=O)Oc1cccc2c1N(C(C)=O)C(C)CC2 (stereo not drawn) [Compound 26b, 1-Acetyl-2-methyl-1,2,3,4-tetrahydroquinolin-8-yl acetate]	–	–	–	–	–	Relative activity to untreated control [9]: +
